Patent publication US20220356163A1, “SMALL MOLECULE INHIBITORS OF Id PROTEINS” (MEMORIAL SLOAN KETTERING CANCER CENTER, priority 2019, published 2022)

Columns and labels:
[1] = molecular target: T1, Id1 (59-104) (Mus musculus, UniProt P20067); assay: UV crosslinking of AGX51-XL2 to purified Id1 with mass spectrometry; format: binding; settings: 10-fold excess of AGX51
T1 construct: 1 μg of purified Id1 (a.a.59-104) and 19.7 ng of AGX51-XL2; made in house; host or cells: E. coli Rosetta 2(DE3)
Protocol: Covalent binding of AGX51 derivative to Id1. An analog of AGX51 (AGX51-XL2) was used which contains a benzophenone photoreactive moiety. 1 μg of purified Id1 (a.a.59-104) and 19.7 ng of AGX51-XL2 (dissolved in DMSO) were combined, in the dark, and then exposed to UV light for 20 minutes, a negative control without UV exposure was also included. The samples were then run in the dark on a 15% denaturing gel, silver stained according to the manufacturers protocol (SilverQuest Staining Kit, Invitrogen, Grand Island, N.Y., USA) and bands were excised for mass spectrometry as described below.
In-gel digestion for mass spectrometry. In-gel digestion was performed using the method by Shevchenko et al. (Nat Protoc 1(6):2856-60 (2006)). Briefly, gel bands were excised, washed with 1:1 (Acetonitrile: 100 mM ammonium bicarbonate) for 30 minutes, dehydrated with 100% acetonitrile for 10 minutes until gel slices shrunk and excess acetonitrile was removed and slices were dried in a speed-vac for 10 minutes without heat. Gel slices were reduced with 5 mM DTT for 30 minutes at 56° C. in a thermostated mixer with gentle mixing, removed, allowed to cool to room temperature then alkylated with 11 mM IAA for 30 minutes in the dark. Gel slices were washed with 100 mM ammonium bicarbonate and 100% acetonitrile for 10 minutes each. […]

[2] = test system: BT-474; assay: MTT assay, BT-474; format: cell-based; set-up: scale not given here; settings: BT-474, HER-2 +ve cell line, 24 hours
From the text: (§1) The 4T1 murine mammary tumor cell line and nine breast cancer cell lines representing the major breast cancer subtypes (ER+, HER2+, and TNBC) including MDA-MB-157, MDA-MB-436, MDA-MB-231, MDA-MB-453, MDA-MB-361, BT-474, SK-BR-3, MCF-7 and T47-D will be grown in RPMI or DMEM (Dulbecco's Modified Eagle Medium) media supplemented with 10% FBS (fetal bovine serum), 1% penicillin-streptomycin and 1% L-Glutamine. Patient derived xenograft cell lines BR7, BR11, and IBT will be established directly from breast cancer bone metastases specimens surgically resected from patients with informed consent. BR7 and BR11 specimens will be obtained from ER positive (HER2 negative and PR negative) metastatic breast cancer patients, while the IBT specimen will be obtained from a metastatic, triple negative breast cancer patient. Fresh tumor tissues will be quickly washed with ice cold PBS and minced into about 1-3 mm pieces in MEM medium (without FBS) using sterile razor blades. […] The cells will be treated with either 100 μM DMSO, AGX51, or a compound of the present technology such as AGX-A. The cell morphology and growth will be monitored daily for 1 week by microscopy for changes in morphology or cell death. […] Absorbance will then measured at 570 nm using a plate reader (Synergy 2, BioTek). […]

[3] = test system: T47-D; assay: MTT assay, T47-D; format: cell-based; settings: ER +ve cell line, 24 hours
From the text: as §1

[4] = Aqueous solubility; format: physicochemical

T1 sequence (P20067 59-104): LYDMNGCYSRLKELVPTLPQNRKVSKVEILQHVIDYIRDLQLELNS

## CCC(=O)N(CCC(c1ccc2c(c1)OCO2)c1ccccc1OC)Cc1ccccc1 (racemic) [AGX51, N-(3-(benzo[d][1,3]dioxol-5-yl)-3-(2-methoxyphenyl)propyl)-N-benzylpropionamide]
[1]
  AGX51-XL2 binding to Id1 in presence of competitor: significant decrease in AGX51-XL2 binding to Id1
[2]
  percentage at 60 μM (IC50 NA): NA (60 μM = 53%)
[3]
  percentage at 60 μM (IC50 NA): NA (60 μM = 65%)
[4]
  water solubility: water insoluble
